How the values were obtained:
faecal microbiota = test: Faecal batch culture with antibiotics promoting CRE colonisation: 1H-NMR of nutrients and metabolites; assay type: cell-based, human; details: 11 healthy donors, antibiotic at faecal concentration, 24 hours anaerobic
Experimental: The inventors performed faecal culture experiments to measure the effects of eight broad-spectrum antibiotics on the faecal microbiota collected from 11 healthy human donors. Faecal culture experiments were performed under anaerobic conditions using a complex gut growth medium that was designed to mimic the nutrients found in the human distal gut (McDonald, J. A. et al. Evaluation of microbial community reproducibility, stability and composition in a human distal gut chemostat model. J. Microbiol. Methods 95, 167-174 (2013)). […] Moon, Y. S., Chung, K. C. & Gill, M. A. Pharmacokinetics of meropenem in animals, healthy volunteers, and patients. Clin Infect Dis 24, S249-S255 (1997). Kager, L., Brismar, B., Malmborg, A. S. & Nord, C. E. Imipenem concentrations in colorectal surgery and impact on the colonic microflora. Antimicrob Agents Chemother 33, 204-8 (1989). Pletz, M. et al. Ertapenem pharmacokinetics and impact on intestinal microflora, in comparison to those of ceftriaxone, after multiple dosing in male and female volunteers. Antimicrob Agents Chemother 48, 3765-72 (2004). Nord, C. E., Brismar, B., Kasholm-Tengve, B. & Tunevall, G. Effect of piperacillin/tazobactam treatment on human bowel microflora. J Antimicrob Chemother 31, 61-5 (1993). […] Antimicrob Agents Chemother 63, 2244 (2019). Pessôa de Menezes e Silva, C H. Elaboration and evaluation of a new screening medium for detection and presumptive identification of extended-spectrum beta-lactamase-producing organisms (ESBL). Braz J Microbiol 31, 271-274 (2000). Brismar, B., Edlund, C., Malmborg, A. S. & Nord, C. […] Antimicrob Agents Chemother 34, 481-3 (1990)). Cultures were incubated anaerobically at 37° C. for 24 hours. Samples were analysed by ^1H-NMR spectroscopy (for nutrient and metabolite profiling) and […] rRNA gene sequencing with 16S rRNA gene qPCR (for bacterial composition and biomass) (McDonald, J. A. K. et a/. Inhibiting Growth of Clostridioides difficile by Restoring Valerate, Produced by the Intestinal Microbiota. Gastroenterology 155, 1495-1507 (2018)).
Supernatants were prepared from faeces by vortexing 300 mg of faeces in 900 μl of HPLC-grade water for 10 minutes at 3000 rpm followed by centrifugation at 17,000×g for 10 minutes at 4° C. Supernatants were prepared from faecal culture samples by centrifugation at 17,000×g for 10 minutes at 4° C. Supernatants were frozen at −80° C. until they were ready for analysis.
^1H-NMR spectroscopy was performed as previously described (McDonald, J. A. K. et al. Inhibiting Growth of Clostridioides difficile by Restoring Valerate, Produced by the Intestinal Microbiota. Gastroenterology 155, 1495-1507 (2018)). Briefly, sample supernatants were randomized and defrosted at room temperature for 1 hour. Sample supernatants were then centrifuged for 10 min at 17 000×g and 4° C. The pellet was discarded and 400 μl of supernatant was added to 250 μl NMR buffer (28.85 g Na2HPO4, 5.25 g NaH2PO4, 1 mM TSP, 3 mM NaN3, deuterium oxide to 1 L, pH 7.4). 600 μl of sample was used to fill each 5 mm NMR tube to be loaded into the SampleJet system.
^1H-NMR spectroscopy was performed using the Bruker AVANCE III HD 800 MHz spectrometer (Bruker Bio-Spin, Rheinstetten, Germany). 1D spectra (a standard NOESYGPPR1D pulse sequence (RD-90°-t1-90°-tm-90°-ACQ)) as well as 2D spectra (standard 2D JRESGPPRQF pulse sequence) were acquired. A recycle delay of 4 seconds and mixing time of 100 ms was used. The 90° pulse length was approximately 10 μs and 32 scans were recorded.
NMR spectra were imported into MATLAB r2019b (The Mathworks, USA) using an in-house script. Spectra were aligned and the water (4.6-5 ppm) and TSP (−0.2-0.2 ppm) peaks were cut. Compounds were identified by comparison to spectral databases in Chenomx NMR Suite (Chenomx, Canada). Representative peaks were integrated for quantification of compounds.

[1] = test system: vancomycin-resistant E. faecalis; test: VRE nutrient utilization protocol: carbon sources; assay type: cell-based, Enterococcus faecalis; details: aerobic; VRE minimal medium
Experimental: (§1) VRE minimal media consists of potassium phosphate monobasic (4 g/L), potassium phosphate dibasic (14 g/L), sodium citrate (1 g/L), magnesium sulphate (0.2 g/L), ammonium sulphate (2 g/L), adenosine (0.04 g/L), thymine (0.04 g/L), Kao and Michayluk vitamin solution [Sigma, K3129, 50× Stock](5×), glucose (1 g/L) and amino acid solution [Sigma, R7131, RPMI-1640, 50×](25×). If the study was performed under anaerobic conditions, fumarate (5.2 g/L) was added to increase growth of VRE strains. Carbon-free minimal media was prepared by leaving out glucose while nitrogen-free minimal media was prepared without the amino acid solution. Media was filter sterilized with a 0.22 micron filter and used immediately aerobically or degassed overnight if used anaerobically.
(§2) VRE strains were grown on R2A overnight before the cells were suspended in 0.9% saline to an OD of 0.38 (λ=595 nm). A 10% dilution of the cell suspension was prepared using VRE minimal media to achieve a final well OD of […] (λ=595 nm) greater than the sterile media OD. Both carbon and nitrogen source utilization were evaluated by adding the inoculated media and a filter-sterilised nutrient source solution into a well in a 1:1 ration to a final volume of 100 μL in aerobic tests and 200 μL in anaerobic tests. Carbon sources were tested individually and compared to a carbon-free control. To test nitrogen source utilization, a nitrogen source solution was prepared containing L-alanine (2 g/L), L-arginine (2.5 g/L, L-asparagine (0.71 g/L), L-aspartate (0.25 g/L), L-cysteine (0.625 g/L), L-glutamate (0.25 g/L), L-Glycine (0.125 g/L), L-histidine (0.1875 g/L), L-isoleucine (0.625 g/L), L-leucine (0.625 g/L), L-lysine HCl (0.5 g/L), L-methionine (0.1875 g/L), L-phenylalanine (0.1875 g/L), L-proline (0.25 g/L), L-serine (0.375 g/L), L-threonine (0.25 g/L), L-tryptophan (0.0625 g/L), L-tyrosine (0.29 g/L), L-valine (0.25 g/L), N-acetylglucosamine (2 g/L), and uracil (2.5 g/L). To test the strains' ability to utilize individual nitrogen sources, separate solutions were prepared eliminating one nitrogen source each. The change in growth compared to the complete nitrogen source solution control was used to determine nitrogen utilization. All carbon and nitrogen sources were tested in a technical triplicate for each biological replicate. Aerobic plates were incubated with a plate seal while anaerobic plates were not. The aerobic plate reader was set to read the plate (λ=595 nm, 37° C., 22 flashes per well, orbital shaking of 100 rpm for 15 s prior to each read) every 15 minutes for 24 hours. The anaerobic plate reader read the plate (λ=595 nm, 37° C., stationary) every 15 minutes for 24 hours.

[2] = test system: NDM-1 Enterobacter cloacae; test: Carbon utilisation assay; assay type: cell-based; details: anaerobic; M9 minimal medium, 0.5% (w/v) carbon source
Experimental: (§3) New Delhi Metallo-β-lactamase 1 (NDM-1) Escherichia coli, NDM-1 Klebsiella pneumoniae, and NDM-1 Enterobacter cloacae were isolated from patients with intestinal CRE colonisation from the Imperial College Healthcare NHS Trust via rectal swab (REC ref. 19/LO/0112). The species were assigned by matrix assisted laser desorption ionization-time of flight (MALDI-TOF) mass spectrometry and later confirmed with 16S rRNA gene sequencing. CRE status was determined using X-pert Carba-R PCR detection (Cepheid, Sunnyvale, CA, USA), (Otter, J. A. et al. Detecting carbapenemase-producing Enterobacterales (CPE): an evaluation of an enhanced CPE infection control and screening programme in acute care. J Antimicrob Chemother 75, 2670-2676 (2020)).
(§4) Growth of CRE isolates on sole carbon or nitrogen sources was tested by inoculating each CRE isolate into a minimal medium supplemented with the nutrient of interest. First, CRE isolates were passaged from frozen glycerol stocks on Reasoner's 2A agar (R2A) plates. Cells were then suspended in M9 minimal media to a turbidity of 42% using a Turbidimeter (Biolog Inc.), then diluted a further 1 in 6 to inoculate the carbon or nitrogen utilisation assays. M9 minimal media contained the following (at final concentrations): 22 mM KH2PO4, 42 mM Na2HPO4, 9 mM NaCl, 0.49 mM MgSO4·7H2O, 0.09 mM CaCl2), 0.011 mM FeSO4·7H2O. For the carbon assays the M9 minimal medium was also supplemented with 0.1% (w/v) NH4Cl (as the nitrogen source) and the carbon sources were individually tested at 0.5% (w/v) concentration. For the nitrogen assays the M9 minimal medium was also supplemented with 0.5% (w/v) glucose (as the carbon source) and the nitrogen sources were individually tested at 0.1% (w/v) concentration. Cultures were incubated anaerobically and aerobically in a plate reader and OD600 readings were collected every 15 minutes for 24 hours.
(§5) Growth curves were analysed in Python (v3.6.5) using the AMiGA software (Midani, F. S., Collins, J. & Britton, R. A. AMiGA: Software for Automated Analysis of Microbial Growth Assays. mSystems 6, e0050821 (2021)). Growth of each isolate was measured with 6 wells from 2-3 independent experiments. Growth curves were normalised to the no substrate control using the subtraction method. AMiGA performed Gaussian Process regression to test differential growth between the substrate and the no substrate control. The functional difference in the OD (and its credible interval) was also computed between the substrate and the no substrate control.

NDM-1 Escherichia coli [3] = test: Carbon utilisation assay; assay type: cell-based; details: M9 minimal medium, 0.5% (w/v) carbon source
Experimental: as §3, §4, §5

[4] = test system: NDM-1 Klebsiella pneumoniae; test: Carbon utilisation assay; assay type: cell-based; details: M9 minimal medium, 0.5% (w/v) carbon source
Experimental: as §3, §4, §5

[5] = test system: vancomycin-resistant E. faecium; test: VRE nutrient utilization protocol: carbon sources; assay type: cell-based, Enterococcus faecium; details: aerobic; VRE minimal medium
Experimental: as §1, §2

NDM-1 Escherichia coli [6] = test: Nutrient preference assay (nutrient mixture); assay type: cell-based; details: aerobic; M9 with […] of each nutrient, up to 24 hours
Experimental: as §3
CRE isolates were passaged once from frozen glycerol stocks on R2A plates. Cells were suspended in M9 minimal media to a turbidity of 42% using a Turbidimeter (Biolog Inc.), then diluted 1 in 6 to inoculate the nutrient preference assays. M9 minimal media was supplemented with 0.015% of each of the following: L-arabinose, D-fructose, L-fucose, D-galactose, D-glucose, D-mannose, D-ribose, D-xylose, N-acetylglucosamine, D-maltose, sucrose, D-trehalose, L-alanine, L-arginine, L-aspartate, L-glutamate, L-glycine, L-isoleucine, L-leucine, L-lysine, L-methionine, L-phenylalanine, L-proline, L-threonine, L-tryptophan, L-tyrosine, L-valine, uracil, and succinate. Cultures were incubated anaerobically and aerobically in a plate reader and OD600 readings were collected every 15 minutes for 24 hours. Cultures were also incubated anaerobically and aerobically for 24 h and samples were collected at 0, 4, 8, and 24 hours post-inoculation for 1H-NMR spectroscopy. Changes in nutrients and metabolites by CRE isolates was compared to the sterile media control over time using a two-way mixed ANOVA followed by pairwise comparisons with Bonferroni correction. […]

Compound	Change in butyrate concentration in faecal cultures (faecal microbiota)	Use as sole carbon source to support E. faecalis growth [1]	Use as sole carbon source to support E. cloacae growth [2]	Use as sole carbon source to support E. coli growth (NDM-1 Escherichia coli [3]; anaerobic)	Use as sole carbon source to support K. pneumoniae growth ([4]; anaerobic)	Use as sole carbon source to support E. faecium growth [5]	Use as sole carbon source to support E. coli growth (NDM-1 Escherichia coli [3]; aerobic)	Use as sole carbon source to support K. pneumoniae growth ([4]; aerobic)	Utilisation of nutrient by E. coli from nutrient mixture (1H-NMR) (NDM-1 Escherichia coli [6])
C[C@@H](O)[C@H]1C(=O)N2C(C(=O)O)=C(S[C@@H]3CN[C@H](C(=O)Nc4cccc(C(=O)O)c4)C3)[C@H](C)[C@H]12 [ETP, ertapenem]	decreased	–	–	–	–	–	–	–	–
C[C@@H](O)[C@H]1C(=O)N2C(C(=O)O)=C(S[C@@H]3CN[C@H](C(=O)N(C)C)C3)[C@H](C)[C@H]12 [MEM, meropenem]	increased	–	–	–	–	–	–	–	–
O=C(CO)[C@@H](O)[C@H](O)[C@H](O)CO [fructose, D-fructose]	–	could use	could use	could use	could use	could use	–	–	–
O=C[C@H](O)[C@@H](O)[C@@H](O)[C@H](O)CO [galactose, D-galactose]	–	could use	could use	could use	could use	could use	–	–	–
OC[C@H]1O[C@H](O[C@H]2[C@H](O)[C@@H](O)[C@H](O)O[C@@H]2CO)[C@H](O)[C@@H](O)[C@@H]1O [maltose, D-maltose]	–	could use	could use	–	could use	could use	able to grow	–	–
O=C[C@H](O)[C@H](O)[C@H](O)CO [ribose, D-ribose]	–	could use	could use	–	–	could use	able to grow	able to grow	–
OC[C@H]1O[C@@](CO)(O[C@H]2O[C@H](CO)[C@@H](O)[C@H](O)[C@H]2O)[C@@H](O)[C@@H]1O [sucrose]	–	could use	could use	–	could use	–	able to grow	–	moderate utilisation
imipenem/cilastatin [IPM]	increased	–	–	–	–	–	–	–	–

Reference: patent US20260183350A1, “ANTIBIOTIC-RESISTANT BACTERIA” (priority 2022, published 2026)
